{"source": "patent US8691514B2", "about": "“Method for selective control of helper T cell function” (Japan Science and Technology Agency, priority 2008, dated 2014)", "origin": "cited, not measured here", "key": {"CD8 positive T cell": {"test_system": "CD8 positive T cell", "details": "treated with GlcCer synthetase inhibitor; Nagafuku et al. 2003, Blank et al. 2005"}, "CD4 positive T cell": {"test_system": "CD4 positive T cell", "details": "treated with GlcCer synthetase inhibitor; Nagafuku et al. 2003, Blank et al. 2005"}}, "data": [{"smiles": "CCCCCCCCCC(=O)N[C@H](CN1CCOCC1)[C@H](O)c1ccccc1.Cl", "note": "[D-PDMP, D-threo-1-phenyl-2-decanoylamiono-3-morpholino-1-prppanol.HCl]", "values": [{"measurement": "function of the CD8 positive T cell", "setting": "CD8 positive T cell", "value": "suppressed"}, {"measurement": "function of the CD4 positive T cell", "setting": "CD4 positive T cell", "value": "suppressed"}]}]}
